Data reported in article PMC12373499 (Nature Metabolism, 2025).
Where a SMILES comes first, the peptide text is derived from it. [ ]: non-standard residue; d: D form. The star is where a group is joined. X1 = CN1C(=CC=CC=CC2=[N+](CCCCCC(=O)NCCN3C(=O)CC(*)C3=O)c3ccccc3C2(C)C)C(C)(C)c2ccccc21; Aib = CC(C)(N)C(=O)O

Experiments:
Nluc–GIPR (hGIPR) = target: T1, Nluc–GIPR (hGIPR) (Homo sapiens, UniProt P48546); assay: NanoBRET saturation binding assay, HEK293T cells
T1 construct: expressed in transfected cells; host or cells: HEK293T cells, transient expression
T1 sequence (P48546 22-466): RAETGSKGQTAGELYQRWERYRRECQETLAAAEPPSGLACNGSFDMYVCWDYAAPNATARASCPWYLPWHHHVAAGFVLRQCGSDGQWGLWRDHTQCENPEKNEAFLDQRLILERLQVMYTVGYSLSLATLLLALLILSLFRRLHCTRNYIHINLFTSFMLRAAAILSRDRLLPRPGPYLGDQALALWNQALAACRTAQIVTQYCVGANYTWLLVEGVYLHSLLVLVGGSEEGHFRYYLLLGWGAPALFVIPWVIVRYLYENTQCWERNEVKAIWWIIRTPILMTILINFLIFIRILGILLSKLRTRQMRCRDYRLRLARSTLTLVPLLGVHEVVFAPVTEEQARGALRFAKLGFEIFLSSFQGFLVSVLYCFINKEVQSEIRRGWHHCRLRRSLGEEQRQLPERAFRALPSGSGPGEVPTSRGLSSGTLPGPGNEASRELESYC
Experimental: (§1) HEK293T cells (RRID:CVCL_0063) were cultured in DMEM/F12 GlutaMAX (ThermoFisher), supplemented with 10% FBS and 1% antibiotic-antimycotic solution and cultured at 37 °C, 5% CO2. HEK293T cells were authenticated at source using STR profiling. […] Media was then removed and the cells were incubated in PBS supplemented with 0.1% BSA and 0.01% NanoGlo (Promega). […] Plates were read using a PheraSTAR microplate reader, using the NanoBRET filter module. BRET ratios (λacceptor/λdonor) were calculated, and saturation data fit using the ‘One Site – Specific Binding’ equation of GraphPad Prism 10. Competition binding was fit using the ‘One Site – Fit Ki’ equation.

Nluc–GLP1R (hGLP1R) = target: T2, Nluc–GLP1R (hGLP1R) (Homo sapiens, UniProt P43220); assay: NanoBRET saturation binding assay, HEK293T cells
T2 construct: expressed in transfected cells; host or cells: HEK293T cells, transient expression
T2 sequence (P43220 24-463): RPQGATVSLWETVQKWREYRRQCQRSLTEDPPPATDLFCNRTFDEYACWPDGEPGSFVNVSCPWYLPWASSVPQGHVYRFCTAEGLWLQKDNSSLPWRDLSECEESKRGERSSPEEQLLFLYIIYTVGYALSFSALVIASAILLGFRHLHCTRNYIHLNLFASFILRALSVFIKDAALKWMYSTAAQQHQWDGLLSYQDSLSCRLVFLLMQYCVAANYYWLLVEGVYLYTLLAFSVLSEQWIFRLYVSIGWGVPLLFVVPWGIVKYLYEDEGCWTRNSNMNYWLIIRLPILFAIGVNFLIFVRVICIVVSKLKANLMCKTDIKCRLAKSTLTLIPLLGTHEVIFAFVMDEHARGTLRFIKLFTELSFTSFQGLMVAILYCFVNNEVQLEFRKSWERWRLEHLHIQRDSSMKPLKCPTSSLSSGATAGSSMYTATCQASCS
Experimental: as §1

MIN6-CB4 β cells = assay: MIN6-CB4 cell fluorescent probe labelling, colocalization; format: cell-based; details: daLUXendin660 (tirz Cy5 500nM) vs LUXendin551 (100nM)
Experimental: MIN6-CB4 cells were generated and phenotyped, as previously described. Cells were grown to 70% confluency in MIN6 media (DMEM High Glucose supplemented with 15% FBS, 71 μM 2-mercaptoethanol, 2 mM glutamine, 100 units ml^−1 penicillin, 100 μg ml^−1 streptomycin). Cells were then seeded in 100 μl MIN6 media per well, on a glass-bottomed 96-well imaging plate previously coated with poly-L-lysine 0.01%.
Probe labelling was analysed using corrected total cell fluorescence, which is integrated density − (area of selected cell × mean fluorescence of background readings)[52],[53]. Colocalization was determined using Manders’ coefficient, which calculates the proportion of pixels in one channel that also show intensity from both channels. Full width at half maximum was used to analyse labelling patterns at the membrane versus cytoplasm. All analyses were performed in ImageJ (NIH), with brightness and contrast linearly adjusted across the entire image for presentation purposes and applied equally between all states under examination.

[1] = One site -- Specific binding, fit of all pooled points

CC[C@H](C)[C@H](NC(=O)[C@H](CC(C)C)NC(=O)[C@H](Cc1c[nH]c2ccccc12)NC(=O)[C@H](CCC(N)=O)NC(=O)[C@@H](NC(=O)[C@H](Cc1ccccc1)NC(=O)[C@H](C)NC(=O)[C@H](CCCCN)NC(=O)[C@H](CCC(N)=O)NC(=O)[C@H](C)NC(=O)[C@@H](NC(=O)[C@H](CCCCN)NC(=O)[C@H](CC(=O)O)NC(=O)[C@H](CC(C)C)NC(=O)C(C)(C)NC(=O)[C@@H](NC(=O)[C@H](CO)NC(=O)[C@H](Cc1ccc(O)cc1)NC(=O)[C@H](CC(=O)O)NC(=O)[C@H](CO)NC(=O)[C@@H](NC(=O)[C@H](Cc1ccccc1)NC(=O)[C@@H](NC(=O)CNC(=O)[C@H](CCC(=O)O)NC(=O)C(C)(C)NC(=O)[C@@H](N)Cc1ccc(O)cc1)[C@@H](C)O)[C@@H](C)O)[C@@H](C)CC)[C@@H](C)CC)C(C)C)C(=O)N[C@@H](C)C(=O)NCC(=O)NCC(=O)N1CCC[C@H]1C(=O)N[C@@H](CO)C(=O)N[C@@H](CO)C(=O)NCC(=O)N[C@@H](C)C(=O)N1CCC[C@H]1C(=O)N1CCC[C@H]1C(=O)N1CCC[C@H]1C(=O)N[C@@H](CSC1CC(=O)N(CCNC(=O)CCCCC[N+]2=C(C=CC=CC=C3N(C)c4ccccc4C3(C)C)C(C)(C)c3ccccc32)C1=O)C(N)=O (some centres unmarked) [daLUXendin660] (H-Y[Aib]EGTFTSDYSI[Aib]LDKIAQKAFVQWLIAGGPSSGAPPPC(X1)-NH2)
Bmax best-fit (nM), hGIPR (Nluc–GIPR (hGIPR); Nluc-tagged hGIPR, NanoBRET saturation, n = 3 independent repeats): 0.0080 nM | Bmax, best-fit value, GIPR (Nluc–GIPR (hGIPR); [1]): 0.01181 | Bmax best-fit (nM), hGLP1R (Nluc–GLP1R (hGLP1R); Nluc-tagged hGLP1R, NanoBRET saturation, n = 3 independent repeats): 0.0140 nM | Bmax, best-fit value, GLP1R (Nluc–GLP1R (hGLP1R); [1]): 0.0163 | Manders' R (MIN6-CB4 β cells; image 2022.05.06 1-1): 0.82 | Pearson's (MIN6-CB4 β cells; image 2022.05.06 1-1): 0.663 | Manders' R (MIN6-CB4 β cells; image 2022.05.06 1-2): 0.763 | Pearson's (MIN6-CB4 β cells; image 2022.05.06 1-2): 0.555 | Manders' R (MIN6-CB4 β cells; image 2022.05.06 1-3): 0.866 | Pearson's (MIN6-CB4 β cells; image 2022.05.06 1-3): 0.756 | Manders' R (MIN6-CB4 β cells; image 2022.05.06 1-4): 0.82 | Pearson's (MIN6-CB4 β cells; image 2022.05.06 1-4): 0.61 | Manders' R (MIN6-CB4 β cells; image 2022.05.06 2-1): 0.849 | Pearson's (MIN6-CB4 β cells; image 2022.05.06 2-1): 0.778 | Manders' R (MIN6-CB4 β cells; image 2022.05.06 2-2): 0.803 | Pearson's (MIN6-CB4 β cells; image 2022.05.06 2-2): 0.595 | Manders' R (MIN6-CB4 β cells; image 2022.05.06 2-3): 0.811 | Pearson's (MIN6-CB4 β cells; image 2022.05.06 2-3): 0.656 | Manders' R (MIN6-CB4 β cells; image 2022.05.06 2-4): 0.83 | Pearson's (MIN6-CB4 β cells; image 2022.05.06 2-4): 0.66 | Manders' R (MIN6-CB4 β cells; image 2022.05.12 1-1): 0.861 | Pearson's (MIN6-CB4 β cells; image 2022.05.12 1-1): 0.826 | Manders' R (MIN6-CB4 β cells; image 2022.05.12 1-2): 0.847 | Pearson's (MIN6-CB4 β cells; image 2022.05.12 1-2): 0.812 | Manders' R (MIN6-CB4 β cells; image 2022.05.12 1-3): 0.799 | Pearson's (MIN6-CB4 β cells; image 2022.05.12 1-3): 0.723 | Manders' R (MIN6-CB4 β cells; image 2022.05.12 1-4): 0.766 | Pearson's (MIN6-CB4 β cells; image 2022.05.12 1-4): 0.713 | Manders' R (MIN6-CB4 β cells; image 2022.05.12 2-1): 0.8 | Pearson's (MIN6-CB4 β cells; image 2022.05.12 2-1): 0.745 | Manders' R (MIN6-CB4 β cells; image 2022.05.12 2-2): 0.809 | Pearson's (MIN6-CB4 β cells; image 2022.05.12 2-2): 0.769 | Manders' R (MIN6-CB4 β cells; image 2022.05.12 2-3): 0.825 | Pearson's (MIN6-CB4 β cells; image 2022.05.12 2-3): 0.795 | Manders' R (MIN6-CB4 β cells; image 2022.05.12 2-4): 0.894
